From patent publication US20170112861A1, “DRUG DELIVERY ENHANCER COMPRISING SUBSTANCE FOR ACTIVATING LYSOPHOSPHOLIPID RECEPTORS” (Osaka University, priority 2014, published 2017) come the findings set out here.

In one assay the test system is LLC cell tumors. Briefly: Delivery of FITC-labeled dextrans (70 kDa, 2000 kDa) to tumor tissues after LPA administration. Format: in vivo. The following applies: LLC tumor-bearing mice, LPA 3 mg/kg i.p., dextran i.v. 24 hours later, tumors harvested after 30 minutes. The protocol: LLC cells were subcutaneously inoculated into C57BL/6 NCrSlc mice aged 8 weeks (females, SLC, Inc.) in the same manner as in Example 1. An LPA administration solution was prepared in the same manner as in Example 1. On day 11 post-inoculation of LLC cells, mice with a tumor volume of 100 to 120 mm^3 were selected. The mice were divided into four groups: control and LPA groups with administration of 70 kDa dextran, and control and LPA groups with administration of 2000 kDa dextran (n=3). LPA (3 mg/kg in 100 μL PBS) or PBS (100 μL) was administered intraperitoneally. At 24 hours after LPA or PBS administration, each type of dextran was administered to the tail vein of the mice under anesthesia with pentobarbital. The dextrans used (70 kDa and 2000 kDa) were FITC-labeled dextrans (Sigma). Each type of dextran was prepared as a solution by dissolving and diluting the FITC-labeled dextran in PBS to a concentration of […], and 100 μL of the solution was used for the administration. At 30 minutes after administration of each type of dextran, the tumors were harvested from the mice, and the tumor specimens were prepared in the same manner as in Example 4. The specimens were observed and photographed under a confocal laser microscope (Leica).

Assay [1] concerns Mouse melanoma B16-BL6 cells. Briefly: Combined administration of LPA and 5-FU, tumor growth in B16-BL6 cell tumor-bearing mice. To be noted: B16-BL6 tumors; LPA 3 mg/kg i.p. once daily for seven days; 5-FU 100 mg/kg i.p. on days 7 and 14. Format: in vivo. The protocol: (§1) LLC cells were subcutaneously inoculated into C57BL/6 NCrSlc mice aged 8 weeks in the same manner as in Example 1. An LPA administration solution was prepared in the same manner as in Example 1. The anticancer drug used was 5-FU (Kyowa Hakko Kirin Co., Ltd.). The 5-FU was prepared as a solution in physiological saline (Otsuka Pharmaceutical Co., Ltd.). On day 7 post-inoculation of LLC cells, mice with a tumor volume of 30 to 50 mm^3 were selected and subjected to the test. The mice were divided into four groups: control group, 5-FU group, LPA group and 5-FU/LPA group (n=3). LPA (3 mg/kg in 100 μL PBS) or 5-FU (100 mg/kg in 100 μL PBS) or PBS (100 μL) was administered intraperitoneally. To 5-FU/LPA group, both LPA and 5-FU were administered intraperitoneally. LPA and PBS were administered once daily for consecutive seven days. 5-FU was administered twice in total, once a week for two weeks (on days 7 and 14 post-inoculation). The tumor size was measured over time after start of administration. The tumor volume was calculated by the formula: volume=length×width×height×0.5. Mice at 2 weeks after start of administration were photographed with a digital camera under anesthesia with pentobarbital. The tumors were harvested and photographed with a digital camera.
Mouse melanoma B16-BL6 cells were used. […]

Assay [2] concerns Mouse colon cancer colon 26 cells. Briefly: Combined administration of LPA and oxaliplatin, tumor growth in colon 26 cell tumor-bearing mice. It counts as in vivo. To be noted: colon 26 tumors in BALB/c mice; LPA 3 mg/kg i.p.; oxaliplatin 1.5 mg/kg i.p. How it is done:
as §1
Mouse colon cancer colon 26 cells were used. […]

Assay [3] deals with newly formed blood vessels in the choroid. Briefly: Age-related macular degeneration model (laser-induced choroidal neovascularization), dextran leakage. Format: in vivo, mice. To be noted: LPA 3 mg/kg i.p. on days 5 and 6 after laser irradiation, day 7, vs control. The source says: C57BL/6 NCrSlc mice aged 8 weeks (females, SLC, Inc.) were used. Tropicamide (Santen Pharmaceutical) was dropped in the eyes of the mice under anesthesia with pentobarbital (Kyoritsu Seiyaku Corporation) to dilate the pupil. The retina surrounding the optic disc of the ocular fundus was irradiated with a laser (Ultima 2000 SE) at four sites in each of the eyes of the mice under observation with a slit lamp microscope for the induction of choroidal neovascularization. The laser irradiation conditions were 150 mW, 0.05 seconds, and 75 μm. LPA (3 mg/kg in 100 μL PBS) was intraperitoneally administered to LPA group (n=3) on days 5 and 6 after laser irradiation, and PBS (100 μL) was intraperitoneally administered to control group (n=3) on days 5 and 6 after laser irradiation. On day 7 after laser irradiation (at 48 hours after first administration of LPA), FITC-labeled 70 kDa dextran (Sigma) was administered to the tail vein of the mice under anesthesia with pentobarbital. The dextran was prepared as a solution by dissolving and diluting the FITC-labeled 70 kDa dextran in PBS to a concentration of 5 mg/mL, and 50 μL of the solution was used for the administration. At 10 minutes after dextran administration, the eyeballs were collected. […]

For lysophosphatidic acid [LPA], in the assay on LLC cell tumors, the “delivery of 70 kDa FITC-labeled dextran to tumor” value was “delivery of 70 kDa and 2000 kDa dextrans to tumors in the deep lobe was observed”; the “delivery of 2000 kDa FITC-labeled dextran to tumor” value was “delivery of 70 kDa and 2000 kDa dextrans to tumors in the deep lobe was observed”. In assay [1], the “tumor growth (tumor volume)” value is given as “some inhibitory effects on tumor growth as compared with the control”. The “tumor growth (tumor volume)” value in assay [2] is listed as “some inhibitory effects on tumor growth as compared with the control, up to day 17 post-inoculation”. In assay [3], the “leakage of FITC-labeled 70 kDa dextran from newly formed blood vessels” value is “the leakage of dextran was significantly inhibited” and the “size of the newly formed blood vessels in the choroid” value was “no significant difference was observed”.
